Values of other authors as cited in patent US12036216B2 (TAHO Pharmaceuticals Ltd., priority 2021, dated 2024).
Structures can show the parent of a compound that is named as a salt. Where two headings read alike, the source gives them in different places.

How the values were obtained:
[1] = pellets taken without the capsule shell compared with the intact capsule formulation
prothrombin time (PT) [2] = conditions: chimpanzee; read-out: apparent Ki for PT
factor Xa = conditions: dog; read-out: IC50 for anti-factor Xa activity
prothrombin time (PT) [3] = conditions: rat; read-out: apparent Ki for PT
[4] = immediate release tablet formulation
[5] = not given; remark: listed apart in the source
prothrombin time (PT) [6] = conditions: dog; read-out: apparent Ki for PT
[7] = not given; remark: listed apart in the source
[8] = not given; remark: listed apart in the source

## CCCCCCOC(=O)NC(=N)c1ccc(NCc2nc3cc(C(=O)N(CCC(=O)OCC)c4ccccn4)ccc3n2C)cc1 [dabigatran etexilate mesylate]
[1]
  increase of oral bioavailability: 75%

## COc1ccc(-n2nc(C(N)=O)c3c2C(=O)N(c2ccc(N4CCCCC4=O)cc2)CC3)cc1 [apixaban, Apixaban]
Prothrombin time (PT) [2]
  Ki: ~4.8 µM
Factor Xa
  IC50: […]
Prothrombin time (PT) [3]
  Ki: ~1700 nM
[4]
  dissolved within 30 minutes: at least 80%
After oral administration in healthy adults
  time to peak apixaban plasma concentration: […]
oral
  bioavailability: […]
[5]; chimpanzee
  Renal clearance as share of systemic clearance: […]
  absolute oral bioavailability: […]
[5]; chimpanzees
  steady-state volume of distribution (Vd): ~0.17 L/kg
Prothrombin time (PT) [6]
  Ki: ~6.6 µM
[7]; dog
  Renal clearance as share of systemic clearance: […]
  absolute oral bioavailability: […]
[7]; dogs
  clearance (CL): ~0.04 L/h/kg
  steady-state volume of distribution (Vd): ~0.2 L/kg
[8]; rat
  Renal clearance as share of systemic clearance: […]
  absolute oral bioavailability: […]
[8]; rats
  clearance (CL): […]
  steady-state volume of distribution (Vd): […]
